{"source": "paper PMC7566913", "about": "“Dual Gene Delivery Reagents From Antiproliferative Alkylphospholipids for Combined Antitumor Therapy” (Frontiers in Chemistry, 2020)", "key": {"[1]": {"parameters": "method as in Gaillard et al., 2019", "details": "lipoplexes with pCMV-Gluc, N/P 3, 1 molar equivalent of DOPE; ref Gaillard et al., 2019; cited from earlier work"}, "[2]": {"tested_on": "16HBE cells", "parameters": "method as in Gaillard et al., 2019", "details": "24 h at 37°C, MTT assay, ref Gaillard et al., 2019; cited from earlier work"}, "[3]": {"parameters": "method as in Gaillard et al., 2019", "details": "ref Gaillard et al., 2019, cited from earlier work"}, "[4]": {"tested_on": "H292 cells", "parameters": "method as in Gaillard et al., 2019", "details": "H292, 24 h at 37°C, MTT assay; ref Gaillard et al., 2019; cited from earlier work"}, "[5]": {"tested_on": "sheep RBC", "details": "sheep RBC, 37°C, ref Gaillard et al., 2019, cited from earlier work"}, "[6]": {"tested_on": "A549 cells", "parameters": "method as in Gaillard et al., 2019", "details": "A549, 24 h at 37°C, MTT assay; ref Gaillard et al., 2019; cited from earlier work"}, "[7]": {"tested_on": "A549 cells", "test": "Antiproliferative effect of pUNO1-hTRAIL vs pCMV-Gluc lipoplexes, MTT, A549", "format": "cell-based, human", "details": "N/P 3, 1 eq. DOPE, pDNA 0.3 and 0.4 μg/well", "method": "Cells were treated with lipoplexes prepared from pro-APLs ME12, PE12, and EE12, with increasing dose of pDNA (0.1–0.4 μg per well). The gold standard gene delivery reagent Lipofectamine® 2000 was assayed in parallel for comparison purpose. In order to distinguish the intrinsic cytotoxic effect of the in situ generated APLs from that resulting from TRAIL expression, pCMV-Gluc was assayed in parallel to pUNO1-hTRAIL. Using pCMV-Gluc, the observed cytotoxicity was assumed to result only from the APL antiproliferative activity, whereas results obtained with pUNO1-hTRAIL are a combination of TRAIL activity and APL antiproliferative effect. […] Though the temptation is to take it as an indicator that functional TRAIL was produced, the difference found was not always statistically significant. The activity profile of the three pro-APLs varied according to the cell line. […]\nFigure 8 Antiproliferative effect of lipoplexes prepared from ME12 (A), PE12 (B), EE12 (C), and the two DNA plasmids pCMV-Gluc (light bars) and pUNO1-hTRAIL (dark bars), on the three cell lines. […] Lipofectamine®-based lipoplexes (0.1 μg plasmid/well) were prepared according to the optimized experimental conditions determined following the supplier's instructions. Cell viability was measured by the MTT assay. Basal mitochondrial activity measured in untreated cells is set at 100%. […]"}, "[8]": {"parameters": "method as in Gaillard et al., 2019", "details": "pyrene fluorescence; ref Gaillard et al., 2019; cited from earlier work"}}, "note": "Read-outs that look alike come from different tables or passages of the source.", "data": [{"smiles": "CCCCCCCC/C=C\\CCCCCCCCCCCCOP(=O)(OCCC[N+](C)(C)C)OCOC(=O)CCCCCCCCCCC", "note": "(stereo not shown) [EE12]", "values": [{"measurement": "Particle size of lipoplexes", "setting": "[1]", "result": "141 ± 5", "unit": "nm"}, {"measurement": "IC50", "setting": "[2]", "result": "144 ± 66", "unit": "µM"}, {"measurement": "H120 (hydrolysis rate after a 120-h incubation period)", "setting": "[3]; pH 4.5", "result": 2, "unit": "%"}, {"measurement": "H120 (hydrolysis rate after a 120-h incubation period)", "setting": "[3]; pH 7.4", "result": 17, "unit": "%"}, {"measurement": "IC50", "setting": "[4]", "result": "125 ± 26", "unit": "µM"}, {"measurement": "HA200 (hemolytic activity at 200 μM)", "setting": "[5]; 1 h", "result": "< 1", "unit": "%"}, {"measurement": "HA200 (hemolytic activity at 200 μM)", "setting": "[5]; 24 h", "result": "18.6 ± 1.5", "unit": "%"}, {"measurement": "IC50", "setting": "[6]", "result": "151 ± 42", "unit": "µM"}, {"measurement": "TRAIL-induced cell death", "setting": "[7]", "result": "15-17%"}, {"measurement": "CMC (APLs) / CAC (pro-APLs)", "setting": "[8]", "result": "0.6 ± 0.2", "unit": "µM"}]}]}
